US20110009462A1, “STABLE, SYNERGISTIC MIXTURES” (LANXESS DEUTSCHLAND GMBH, priority 2007, published 2011)

Key:
Type in all cases: cell-based
[1] = system: Rhodotorula rubra; experiment: MIC and synergism (Kull) against yeast Rhodotorula rubra, malt extract liquid medium
Experimental: (§1) The synergism was determined by the method described by Kull et al. (F. C. Kull, P. C. Eismann, H. D. Sylvestrowicz, R. L. Mayer, Applied Microbiology 9, 538 to 541, 1961). The following relationships apply:
(§2) [formula] • Qa=amount of substance A • Qb=amount of substance B • MIC(A)=concentration of substance A which prevents microbial growth • MIC(B)=concentration of substance B which prevents microbial growth • MIC(A+B)=concentration of substance A+B which prevents microbial growth • SI=synergistic index, where SI=1 means additive effect • SI>1 means antagonism • SI<1 means synergism
Various concentrations of GDA and MIT and mixtures of the two abovementioned active substances were tested against the yeast Rhodotorula rubra. The incubation is performed in malt extract liquid medium at 26° C. The growth of Rhodotorula rubra was compared at the various active substance concentrations with the growth without active substance. The lowest concentration at which growth was no longer detected is stated as the minimum inhibitory concentration (MIC).

[2] = system: Corynebacterium; experiment: MIC and synergism (Kull) against Corynebacterium, Landy minimal medium pH 9
Experimental: as §1, §2
(§3) Various concentrations of GDA and MIT and mixtures of the two abovementioned active substances were tested against the bacterium Corynebacterium. The incubation is performed in Landy minimal medium at pH 9 and 26° C. The growth of Corynebacterium was compared at the various active substance concentrations with the growth without active substance. The lowest concentration at which growth was no longer detected is stated as the minimum inhibitory concentration (MIC).

[3] = system: Pseudomonas fluorescens; experiment: MIC and synergism (Kull) against Pseudomonas fluorescens, Landy minimal medium pH 9
Experimental: as §1, §2
as §3, with “Pseudomonas fluorescens.” for “Corynebacterium.”, “Pseudomonas fluorescens” for “Corynebacterium”

[4] = system: Pseudomonas fluorescens; experiment: MIC and synergism (Kull) against Pseudomonas fluorescens, Landy minimal medium pH 7
Experimental: as §1, §2
as §3, with “Pseudomonas fluorescens.” for “Corynebacterium.”, “7” for “9”, “Pseudomonas fluorescens” for “Corynebacterium”, “at” for “at the”

[5] = Landy minimal medium, pH 9, 26° C.

MIC ([1]; Rhodotorula rubra, malt extract liquid medium, 26° C.) [ppm] | MIC [2, 5] [ppm] | MIC [3, 5] [ppm] | MIC ([4]; Landy minimal medium, pH 7, 26° C.) [ppm] | SMILES | MIC ([1]; Rhodotorula) [µg/mL] | MIC ([2]; pH 9) [µg/mL] | MIC ([3]; pH 9) [µg/mL] | MIC ([4]; pH 7) [µg/mL]
– | – | – | – | Cn1sccc1=O [MIT, 2-methyl-2H-isothiazol-3-one] | 50 | 5 | 20 | 5
100 | 10 | 50 | 20 | O=CCCCC=O [GDA, glutardialdehyde] | – | – | – | –
